{"source": "patent US9763974B2", "about": "“Galacto-rhamnogalacturonate compositions for the treatment of diseases associated with elevated inducible nitric oxide synthase” (Galectin Therapeutics, Inc., priority 2012, dated 2017)", "tested_on": "inducible nitric oxide synthase (iNOS) in liver tissue", "test": "iNOS immunostaining and digital morphometry in liver tissue, STAM mouse model of steatohepatitis", "format": "in vivo", "settings": "STAM mice", "procedure": "The experimental model used in this example is the mouse in which diabetes was induced and a high fat diet was administered, a model that has been called STAM mice. Diabetes is induced immediately following birth with a single injection of streptozotocin and then four weeks later the mice are started on a high fat diet. This is a proven chronic inflammatory model in which the mice consistently develop steatohepatitis with hepatocyte fat accumulation, evidence of hepatocyte toxicity, portal and lobular inflammatory infiltrates, peri-sinusoidal fibrosis, advanced fibrosis with nodule formation, cirrhosis, and ultimately hepatocellular carcinoma in a certain percentage of animals.\nGR-MD-02, produced as described in Example 1, was given in a dose of 60 mg/kg twice weekly intravenously for four (4) weeks starting at week 9 after initiation of the model through week 12.\nGR-MD-02, produced as described in Example 1, was also given in a dose of 120 mg/kg, 60 mg/kg, 30 mg/kg, 10 mg/kg once weekly intravenously for six weeks at the each of the starting at week six of the model and ending at week 12.", "data": [{"substance": "galacto-rhamnogalacturonate [GR-MD-02]", "values": [{"measurement": "quantification of iNOS immunoreactivity (FIG. 3)", "setting": "10 mg/kg once weekly intravenously for six weeks", "value": "statistically significant reductions"}, {"measurement": "quantification of iNOS immunoreactivity (FIG. 3)", "setting": "30 mg/kg once weekly intravenously for six weeks", "value": "statistically significant reductions"}, {"measurement": "quantification of iNOS immunoreactivity (FIG. 1B)", "setting": "60 mg/kg twice weekly intravenously for 4 weeks, week 9 through week 12", "value": "statistically significant reduction"}, {"measurement": "amount of iNOS detected in liver tissue (FIG. 1A)", "setting": "60 mg/kg twice weekly intravenously for 4 weeks, week 9 through week 12, vs vehicle-treated control", "value": "markedly reduced"}, {"measurement": "amount of iNOS detected in liver tissue (FIG. 2)", "setting": "10, 30, 60 or 120 mg/kg once weekly intravenously for six weeks, week 6 to week 12, vs vehicle-treated control", "value": "reduced"}, {"measurement": "quantification of iNOS immunoreactivity (FIG. 3)", "setting": "various once weekly intravenous doses (10-120 mg/kg) for six weeks", "value": "reduction of iNOS immunoreactivity"}]}]}
